{
  "source": "paper PMC9503459",
  "about": "“Antifungal Activity, Structural Stability, and Immunomodulatory Effects on Human Immune Cells of Defensin from the Lentil Lens culinaris” (Membranes, 2022)",
  "key": {"[1]": {"tested_on": "pro-inflammatory macrophages (Mφ1) from THP-1 cells", "assay": "Cytokine response by multiplex xMAP, pro-inflammatory macrophages", "assay_type": "cell-based, human", "settings": "Mφ1 macrophages (THP-1), 2 µM, 24 h", "experimental": "Colorectal adenocarcinoma Caco-2 cell line (ATCC HTB-37) was cultured in complete DMEM/F12 (1:1) medium containing 10% fetal bovine serum (FBS, Gibco) and 1X antibiotic-antimycotic solution (1XAAS, Invitrogen, Waltham, MA, USA). The acute monocytic leukemia THP-1 line (ATCC TIB-202) was cultured in complete RPMI-1640 medium, containing 10% FBS, 1XAAS, and […]. THP-1 cells were differentiated into pro-inflammatory macrophages (Mφ1) with phorbol 12-myristate 13-acetate (Sigma-Aldrich) for 24 h and subsequently polarized with lipopolysaccharide from E. coli (Sigma-Aldrich) and rhIFN-γ (Sigma-Aldrich) for another 48 h according to previously reported protocol. All cells were cultured in a humidified CO2 incubator (5% CO2, 37 °C). Primary peripheral blood mononuclear cells (PBMCs) collected from a healthy donor were purchased from American Type Culture Collection (ATCC PCS-800-011). CD4^+ T-helper and CD8^+ T cytotoxic cells were isolated from PBMCs by magnetic separation with mouse anti-human CD4-PE (clone 13B8.2, Beckman Coulter Diagnostics, Pasadena, CA, USA) and CD8-PE (clone REA734, Miltenyi Biotec, Bergisch Gladbach, Germany), Anti-PE MicroBeads (Miltenyi Biotec), and LS Separation Columns (Miltenyi Biotec). Isolated CD4^+ and CD8^+ cells were expanded separately with Dynabeads™ Human T-Expander CD3/CD28 (Gibco, Waltham, MA, USA) in RPMI-1640 supplemented with 10% FBS, 1XAAS and 100 U/mL rh-IL-2 (Gibco). Regulatory CD4^+ FoxP3^+ T cells (Tregs) were isolated from PBMCs by magnetic separation with CD4^+CD25^+ Regulatory T Cell Isolation Kit, human (Miltenyi Biotec). Primary CD14^+ blood monocytes were isolated from PBMCs by adherence according to standard technique. Monocyte-derived mature dendritic cells (moDCs) were obtained from CD14^+ blood monocytes according to the previously reported protocol. Briefly, blood monocytes were incubated in complete RPMI-1640 medium, containing 10% FBS, 1XAAS, 800 U/mL rhGM-CSF (Sci-Store, Russia, Moscow) and 500 U/mL rhIL-4 (Sci-Store) for 3 days. Fresh complete RPMI-1640 medium with rhGM-CSF and rhIL-4 was added to the culture on day 3. On day 5, fresh complete RPMI-1640 containing 100 U/mL rhTNF-α (Sigma) as well as 800 U/mL rhGM-CSF and 500 U/mL rhIL-4 was added and the culture was incubated for another 4 days until full maturation.\nCaco-2 cells were seeded into the wells of a 48-well plate, coated with 0.1% bovine collagen (Sigma-Aldrich) for 24 h, 3 weeks before the experiment with complete DMEM/F12 (1:1) medium renewal every 2–3 days. Monocytes, moDCs, CD4^+ T-helper and CD8^+ T cytotoxic cells, Mφ1, and Regulatory CD4^+ FoxP3^+ T cells were seeded into the wells of 48-well plates in the complete RPMI-1640 medium supplemented with 10% Human AB serum (HABS, Capricorn Scientific, Ebsdorfergrund, Germany) and 1XAAS 24 h prior to the experiment; medium in Caco-2-containing wells was also replaced with the same medium. After 24 h, half of the medium in each well was replaced by fresh complete RPMI-1640 medium with 10% HABS, supplemented with 4 µM of Lc-def for the sample wells or fresh medium alone for the control wells. Cell cultures were kept in CO2-incubator (5% CO2, 37 °C) for another 24 h. Culture supernatants were collected 24 h later and stored at −70 °C degrees less than one month prior to the analytes assessment. […]"}, "PBMCs": {"tested_on": "PBMCs", "assay": "Resazurin-based cytotoxicity assay, PBMCs", "assay_type": "cell-based, human", "settings": "50 μM peptide, 24 h", "experimental": "The cytotoxic properties of Lc-def and melittin as a control were investigated also by resazurin-based cell cytotoxicity assay. PBMCs and THP-1 cells were seeded in 96-well plates at 2 × 10^6 and 1 × 10^6 cells per well, respectively, in RPMI-1640 supplemented with 10% FBS, and kept in CO2-incubator. After 24 h serial two-fold dilutions of compounds in culture medium were then added to final concentrations from 0.2 to 50 μM. After 24 h of incubation with the peptides, resazurin (Sigma) was added at a final concentration of 0.7 mM, and the plates were incubated overnight (16 h). Fluorescent resorufin was registered using 535/595 filter at PlateReader AF2200 (Eppendorf, Hamburg, Germany). Untreated corresponding cells were used as negative controls. The cell viability was calculated as: cell viability (%) = (Fsample/Fcontrol) × 100%. The experiment was carried out twice in triplicate."}, "[2]": {"tested_on": "phytopathogenic filamentous fungi including Aspergillus niger", "settings": "some, but not all, tested fungi including Aspergillus niger; cited from earlier work"}},
  "note": "Where “and” joins values, the source holds several entries; their conditions need not be identical. Identical values can stand only once. No end group written: not given here.",
  "data": [
    {"substance": "Lc-def: defensin from lentil Lens culinaris seeds (UniProt:B3F051), recombinant, overexpressed in Escherichia coli (KTCENLSDSFKGPCIPDGNCNKHCKEKEHLLSGRCRDDFRCWCTRNC; disulfide (positions not given here); ends not checked; also: disulfide bonds present, pairing not given here; UniProt B3F051 28-74, looked up)", "values": [
      {"measurement": "EGF", "setting": "[1]", "value": 2.32, "unit": "pg/mL"},
      {"measurement": "Eotaxin", "setting": "[1]", "value": "<3.23↓ pg/ml"},
      {"measurement": "FGF-2", "setting": "[1]", "value": 16.21, "unit": "pg/mL"},
      {"measurement": "FLT-3L", "setting": "[1]", "value": 2.27, "unit": "pg/mL"},
      {"measurement": "Fractalkine", "setting": "[1]", "value": "<23.19↓ pg/ml"},
      {"measurement": "G-CSF", "setting": "[1]", "value": 1150, "unit": "pg/mL"},
      {"measurement": "GM-CSF", "setting": "[1]", "value": 74.32, "unit": "pg/mL"},
      {"measurement": "GROa", "setting": "[1]", "value": 545.96, "unit": "pg/mL"},
      {"measurement": "IFNa2", "setting": "[1]", "value": 7.77, "unit": "pg/mL"},
      {"measurement": "IFNg", "setting": "[1]", "value": "<1.99↓ pg/ml"},
      {"measurement": "IL-1RA", "setting": "[1]", "value": 101.1, "unit": "pg/mL"},
      {"measurement": "IL-1a", "setting": "[1]", "value": 38.93, "unit": "pg/mL"},
      {"measurement": "IL-1b", "setting": "[1]", "value": 471.74, "unit": "pg/mL"},
      {"measurement": "IL-2", "setting": "[1]", "value": "<0.31↓ pg/ml"},
      {"measurement": "IL-3", "setting": "[1]", "value": "<0.48↓ pg/ml"},
      {"measurement": "IL-4", "setting": "[1]", "value": 0.92, "unit": "pg/mL"},
      {"measurement": "IL-5", "setting": "[1]", "value": "<0.24↓ pg/ml"},
      {"measurement": "IL-6", "setting": "[1]", "value": 1022, "unit": "pg/mL"},
      {"measurement": "IL-7", "setting": "[1]", "value": "<0.33↓ pg/ml"},
      {"measurement": "IL-8", "setting": "[1]", "value": ">17785↑ pg/ml"},
      {"measurement": "IL-9", "setting": "[1]", "value": "<1.05↓ pg/ml"},
      {"measurement": "IL-10", "setting": "[1]", "value": 41.17, "unit": "pg/mL"},
      {"measurement": "IL-12 (p40)", "setting": "[1]", "value": "<3.02↓ pg/ml"},
      {"measurement": "IL-12 (p70)", "setting": "[1]", "value": 4.54, "unit": "pg/mL"},
      {"measurement": "IL-13", "setting": "[1]", "value": 15.11, "unit": "pg/mL"},
      {"measurement": "IL-15", "setting": "[1]", "value": "<1.45↓ pg/ml"},
      {"measurement": "IL-17A", "setting": "[1]", "value": "<1.55↓ pg/ml"},
      {"measurement": "IL-17E/IL-25", "setting": "[1]", "value": "<20.59↓ pg/ml"},
      {"measurement": "IL-17F", "setting": "[1]", "value": "<16.96↓ pg/ml"},
      {"measurement": "IL-18", "setting": "[1]", "value": 6.51, "unit": "pg/mL"},
      {"measurement": "IL-22", "setting": "[1]", "value": 28.78, "unit": "pg/mL"},
      {"measurement": "IL-27", "setting": "[1]", "value": 40.89, "unit": "pg/mL"},
      {"measurement": "IP-10", "setting": "[1]", "value": "<1.56↓ pg/ml"},
      {"measurement": "M-GSF", "setting": "[1]", "value": "<23.75↓ pg/ml"},
      {"measurement": "MCP-1", "setting": "[1]", "value": "259 pg/mL and 259.04 pg/mL"},
      {"measurement": "MCP-3", "setting": "[1]", "value": 8.66, "unit": "pg/mL"},
      {"measurement": "MDC", "setting": "[1]", "value": "<0.35↓ pg/ml"},
      {"measurement": "MIG", "setting": "[1]", "value": "124 pg/mL and 124.97 pg/mL"},
      {"measurement": "MIP-1a", "setting": "[1]", "value": 2680, "unit": "pg/mL"},
      {"measurement": "MIP-1b", "setting": "[1]", "value": "413 pg/mL and 413.11 pg/mL"},
      {"measurement": "PDGF-AA", "setting": "[1]", "value": 4181, "unit": "pg/mL"},
      {"measurement": "PDGF-AB/BB", "setting": "[1]", "value": "<9.75↓ pg/ml"},
      {"measurement": "RANTES", "setting": "[1]", "value": 23.61, "unit": "pg/mL"},
      {"measurement": "TGF-a", "setting": "[1]", "value": 0.89, "unit": "pg/mL"},
      {"measurement": "TNFa", "setting": "[1]", "value": 1942, "unit": "pg/mL"},
      {"measurement": "TNFb", "setting": "[1]", "value": 1.95, "unit": "pg/mL"},
      {"measurement": "VEGFa", "setting": "[1]", "value": 48.67, "unit": "pg/mL"},
      {"measurement": "sCD40L", "setting": "[1]", "value": 14.8, "unit": "pg/mL"},
      {"measurement": "cell viability", "setting": "PBMCs", "value": 100, "unit": "%"},
      {"measurement": "activity against phytopathogenic filamentous fungi", "setting": "[2]", "value": "active"}
    ]}
  ]
}
